Results as given in ChEMBL document CHEMBL1201862, “PubChem BioAssay data set” (2004).
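Where inhibition never reached the appropriate level, the endpoint shown equals the highest concentration tested. Otherwise, values were interpolated linearly from a five-concentration, 48-hour dose response in 96-well plates. At the GI50, growth is halved.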 Activity calls are given as the source filed them. Cut-off read from the data, not from the text of the source: active = GI50 up to about 1.1 µM and inactive = higher.

Experiments:
Experiment in all cases: DTP human tumour cell line panel, 48 h
MDA-N = system: MDA-N
OVCAR-3 = system: OVCAR-3
SK-OV-3 = system: SK-OV-3
Malme-3M = system: Malme-3M
K562 = system: K562
SF-539 = system: SF-539
KM12 = system: KM12
DU-145 = system: DU-145
HL-60 = system: HL-60
OVCAR-4 = system: OVCAR-4
ACHN = system: ACHN
NCI-H23 = system: NCI-H23
SK-MEL-28 = system: SK-MEL-28
IGROV-1 = system: IGROV-1
U-251 = system: U-251
SR = system: SR
786-0 = system: 786-0
OVCAR-5 = system: OVCAR-5
A549 = system: A549
SN12C = system: SN12C
CCRF-CEM = system: CCRF-CEM
SF-295 = system: SF-295
NCI-H226 = system: NCI-H226
TK-10 = system: TK-10
RPMI-8226 = system: RPMI-8226
HOP-62 = system: HOP-62
T47D = system: T47D
COLO 205 = system: COLO 205
SK-MEL-5 = system: SK-MEL-5
HCC 2998 = system: HCC 2998
LOX IMVI = system: LOX IMVI
HT-29 = system: HT-29
BT-549 = system: BT-549
RXF 393 = system: RXF 393
SW-620 = system: SW-620
HCT-15 = system: HCT-15
M14 = system: M14
PC-3 = system: PC-3
MDA-MB-231 = system: MDA-MB-231
MCF7 = system: MCF7
OVCAR-8 = system: OVCAR-8
A498 = system: A498
NCI-H460 = system: NCI-H460
NCI/ADR-RES = system: NCI/ADR-RES
UACC-62 = system: UACC-62
HCT-116 = system: HCT-116
NCI-H522 = system: NCI-H522
SF-268 = system: SF-268
Hs-578T = system: Hs-578T
HOP-92 = system: HOP-92
UO-31 = system: UO-31
EKVX = system: EKVX
SK-MEL-2 = system: SK-MEL-2
CAKI-1 = system: CAKI-1
SNB-19 = system: SNB-19
MOLT-4 = system: MOLT-4
UACC-257 = system: UACC-257
MDA-MB-435 = system: MDA-MB-435

Measured: GI50

COc1ccc(Nc2nc(N)c(C(=O)c3ccco3)s2)cc1
6.58 µM: HCT-15
active: SR 0.955 µM
inactive: MDA-N 4.11 µM | OVCAR-3 20.6 µM | SK-OV-3 35 µM | Malme-3M > 90.2 µM | K562 4.72 µM | SF-539 16.6 µM | KM12 8.59 µM | DU-145 38.4 µM | HL-60 5.04 µM | OVCAR-4 > 48.1 µM | ACHN 47.8 µM | NCI-H23 > 61.4 µM | SK-MEL-28 > 88.7 µM | IGROV-1 10.7 µM | U-251 40.4 µM | 786-0 > 40 µM | OVCAR-5 > 83.2 µM | A549 27.3 µM | SN12C > 70.8 µM | CCRF-CEM 5.47 µM | SF-295 31.6 µM | NCI-H226 33.9 µM | TK-10 10.8 µM | RPMI-8226 16.6 µM | HOP-62 > 63.8 µM | T47D > 60.5 µM | COLO 205 13.4 µM | SK-MEL-5 14.5 µM | HCC 2998 15.7 µM | LOX IMVI 32.5 µM | HT-29 7.78 µM | BT-549 > 67.8 µM | RXF 393 31.8 µM | SW-620 13.2 µM | M14 65.2 µM | PC-3 53.6 µM | MDA-MB-231 > 88.1 µM | MCF7 6.81 µM | OVCAR-8 > 100 µM | A498 13.2 µM | NCI-H460 13.7 µM | NCI/ADR-RES 26.1 µM | UACC-62 45.8 µM | HCT-116 9.23 µM | NCI-H522 7.71 µM | SF-268 39.3 µM | Hs-578T 22.4 µM | HOP-92 > 92.7 µM | UO-31 29.3 µM | EKVX > 58.3 µM | SK-MEL-2 23 µM | CAKI-1 50 µM | SNB-19 > 56.5 µM | MOLT-4 3.61 µM | UACC-257 41.7 µM | MDA-MB-435 3.15 µM
